The values below come from ChEMBL document CHEMBL5614426 (J Med Chem, 2024).

In experiment [1] the target is T1, Histone-lysine N-methyltransferase NSD2 (Homo sapiens, UniProt O96028).
T1 sequence (O96028 whole entry): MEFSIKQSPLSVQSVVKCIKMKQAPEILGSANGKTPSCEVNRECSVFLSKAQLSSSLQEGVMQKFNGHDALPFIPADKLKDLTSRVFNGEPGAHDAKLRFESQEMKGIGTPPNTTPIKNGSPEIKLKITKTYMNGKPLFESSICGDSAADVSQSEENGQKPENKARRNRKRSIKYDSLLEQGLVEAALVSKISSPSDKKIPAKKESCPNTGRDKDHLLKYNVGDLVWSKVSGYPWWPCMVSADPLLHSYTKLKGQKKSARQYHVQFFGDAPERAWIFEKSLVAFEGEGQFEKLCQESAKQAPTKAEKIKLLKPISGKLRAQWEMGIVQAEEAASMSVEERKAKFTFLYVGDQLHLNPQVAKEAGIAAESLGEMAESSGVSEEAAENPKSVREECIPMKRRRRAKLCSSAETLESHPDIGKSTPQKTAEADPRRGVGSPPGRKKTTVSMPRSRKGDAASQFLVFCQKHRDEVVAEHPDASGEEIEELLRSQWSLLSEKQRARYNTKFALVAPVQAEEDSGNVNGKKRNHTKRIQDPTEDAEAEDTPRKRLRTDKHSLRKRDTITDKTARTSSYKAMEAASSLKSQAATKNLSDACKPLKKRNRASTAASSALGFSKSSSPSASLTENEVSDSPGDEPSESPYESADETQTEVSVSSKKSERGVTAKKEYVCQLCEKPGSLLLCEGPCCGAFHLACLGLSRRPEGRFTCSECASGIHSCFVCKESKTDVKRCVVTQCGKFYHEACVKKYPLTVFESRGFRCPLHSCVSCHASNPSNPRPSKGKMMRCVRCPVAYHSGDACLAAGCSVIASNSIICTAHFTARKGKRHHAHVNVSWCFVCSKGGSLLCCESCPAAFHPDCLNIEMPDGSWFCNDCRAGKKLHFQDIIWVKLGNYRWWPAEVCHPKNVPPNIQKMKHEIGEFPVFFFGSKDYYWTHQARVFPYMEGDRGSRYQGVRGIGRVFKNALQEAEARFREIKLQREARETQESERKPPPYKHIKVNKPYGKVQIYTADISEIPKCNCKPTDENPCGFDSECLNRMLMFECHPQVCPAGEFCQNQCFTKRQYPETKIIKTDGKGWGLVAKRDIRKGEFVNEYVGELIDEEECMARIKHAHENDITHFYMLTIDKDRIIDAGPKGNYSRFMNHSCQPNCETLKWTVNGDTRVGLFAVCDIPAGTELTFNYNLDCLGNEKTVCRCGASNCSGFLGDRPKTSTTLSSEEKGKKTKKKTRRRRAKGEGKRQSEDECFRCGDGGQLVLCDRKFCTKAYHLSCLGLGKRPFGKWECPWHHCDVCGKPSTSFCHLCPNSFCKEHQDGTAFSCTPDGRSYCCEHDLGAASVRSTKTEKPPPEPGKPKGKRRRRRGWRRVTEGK
Briefly: Inhibition of recombinant human NSD2 (941 to 1240 residues) using unmethylated histone H3 as substrate incubated for 40 mins in the presence of SAM and nucleosomes by AlphaLISA method.

Experiment [2] has as its target T2, Histone-lysine N-methyltransferase EHMT2 (Homo sapiens) (UniProt Q96KQ7).
T2 sequence (whole entry): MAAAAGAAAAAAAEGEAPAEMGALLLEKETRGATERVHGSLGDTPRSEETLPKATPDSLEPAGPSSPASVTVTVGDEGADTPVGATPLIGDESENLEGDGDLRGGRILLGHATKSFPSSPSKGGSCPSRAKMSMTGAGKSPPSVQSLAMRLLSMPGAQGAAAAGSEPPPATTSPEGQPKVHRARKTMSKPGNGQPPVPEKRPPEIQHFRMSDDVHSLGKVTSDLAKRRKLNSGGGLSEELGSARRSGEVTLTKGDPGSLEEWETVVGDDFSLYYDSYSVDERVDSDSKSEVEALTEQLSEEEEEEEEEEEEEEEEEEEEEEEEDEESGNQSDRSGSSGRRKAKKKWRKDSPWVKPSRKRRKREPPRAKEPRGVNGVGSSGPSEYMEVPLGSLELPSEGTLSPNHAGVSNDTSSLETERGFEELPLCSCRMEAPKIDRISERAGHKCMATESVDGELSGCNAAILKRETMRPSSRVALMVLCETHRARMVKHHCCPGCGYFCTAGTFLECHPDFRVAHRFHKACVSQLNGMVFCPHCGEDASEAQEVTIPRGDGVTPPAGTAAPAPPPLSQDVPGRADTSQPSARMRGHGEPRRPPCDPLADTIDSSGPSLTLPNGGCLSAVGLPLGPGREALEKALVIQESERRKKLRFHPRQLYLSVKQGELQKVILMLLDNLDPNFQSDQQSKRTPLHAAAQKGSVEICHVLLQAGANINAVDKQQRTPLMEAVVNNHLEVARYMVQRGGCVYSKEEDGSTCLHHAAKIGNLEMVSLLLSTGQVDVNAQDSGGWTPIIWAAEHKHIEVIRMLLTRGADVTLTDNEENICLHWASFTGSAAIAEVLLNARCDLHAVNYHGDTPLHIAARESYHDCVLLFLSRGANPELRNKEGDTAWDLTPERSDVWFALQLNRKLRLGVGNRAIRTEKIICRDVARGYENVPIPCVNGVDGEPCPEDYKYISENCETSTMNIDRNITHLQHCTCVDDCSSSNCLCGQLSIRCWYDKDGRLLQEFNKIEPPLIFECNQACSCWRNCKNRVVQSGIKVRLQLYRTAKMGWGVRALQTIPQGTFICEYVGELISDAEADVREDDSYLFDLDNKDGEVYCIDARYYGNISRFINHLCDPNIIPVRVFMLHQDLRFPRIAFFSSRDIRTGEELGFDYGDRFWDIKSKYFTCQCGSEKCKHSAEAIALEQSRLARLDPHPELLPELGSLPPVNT
Briefly: Inhibition of G9a (unknown origin) at 1 uM by AlphaLISA assay relative to control.

The target in experiment [3] is T2, Histone-lysine N-methyltransferase EHMT2 (Homo sapiens). Briefly: Inhibition of G9a (unknown origin) at 10 uM by AlphaLISA assay relative to control.

As to `COc1cc2nc(C#N)nc(NC3CCN(C4CCCCC4)CC3)c2cc1OC`, the 50% inhibitory concentration (IC50) in experiment [1] turned out to be 1200 nM.

As to `CC#CC(=O)NC12CC(NC3=C(Cl)C(=O)c4ncccc4C3=O)(C1)C2`, the IC50 in experiment [1] was 243 nM.

Consider `COc1cc2nc(C#N)nc(NC3CCN(C(=O)OC(C)(C)C)CC3)c2cc1OC`, for which the IC50 in experiment [1] came out at 3330 nM.

`COc1cc2nc(N3CCOCC3)nc(NC3CCN(Cc4ccccc4)CC3)c2cc1OC`: the half-maximal inhibitory concentration (IC50) in experiment [1] was more than 5000 nM. Besides, the values for the inhibition in experiment [2] and in experiment [3] were 98.7% and 98.5%, respectively.

As to `CCCN1CCC(Nc2nc(C#N)nc3cc(OC)c(OC)cc23)CC1`, the concentration for half-maximal inhibition (IC50) in experiment [1] amounted to 569 nM.

`CNc1nc(NC2CCN(Cc3ccccc3)CC2)c2cc(OC)c(OC)cc2n1`: in experiment [1], the IC50 is 1510 nM. Further, the results for the inhibition in experiment [2] and in experiment [3] were 99.5% and 99.4%, respectively.

As for `COc1cc2c(NC3CCN(C(C)C)CC3)nc(C#N)nc2cc1OCCN1CCOCC1`, the IC50 in experiment [1] turned out to be 44 nM.

With `COc1cc2nc(C#N)nc(NC3CCN(C4CC4)CC3)c2cc1OC`, the IC50 in experiment [1] came to 45 nM.

Turning to `COc1cc2nc(C#N)nc(NC3CCN(Cc4ccccc4)CC3)c2cc1OC`, the inhibition in experiment [2] came out at 2.8%; in experiment [3], 5.6%.

Regarding `COc1cc2nc(N3CCCN(C)CC3)nc(NC3CCN(Cc4ccccc4)CC3)c2cc1OC`, the IC50 in experiment [1] came out at 1730 nM. The results for the inhibition in experiment [2] and in experiment [3] were 98.3% and 98.8%, respectively.

Take `COc1cc2c(NC3CCN(C(C)C)CC3)nc(C#N)nc2cc1OCc1ccccc1`: in experiment [1], the half-maximal inhibitory concentration (IC50) worked out at 49 nM.

As for `COc1cc2nc(C#N)nc(NC3CCN(C(C)=O)CC3)c2cc1OC`, the concentration for half-maximal inhibition (IC50) in experiment [1] amounted to 2780 nM.

In the case of `COc1cc2c(NC3CCN(C(C)C)CC3)nc(C#N)nc2cc1OCCCN1CCC(F)(F)CC1`, the 50% inhibitory concentration (IC50) in experiment [1] stood at 32 nM.

As to `CC(C)N1CCC(Nc2nc(C#N)nc3ccccc23)CC1`, the IC50 in experiment [1] came out at 377 nM.

Regarding `COc1cc2nc(-c3ccccc3)nc(NC3CCN(Cc4ccccc4)CC3)c2cc1OC`, the half-inhibitory concentration (IC50) in experiment [1] is more than 5000 nM. Further, the inhibition stood at 29.9% in experiment [2] and 99.2% in experiment [3].

As to `COc1cc2nc(C#N)nc(Nc3ccc(N4CCN(C)CC4)cc3)c2cc1OC`, the IC50 in experiment [1] was determined as 3150 nM.

Take `COc1cc2c(NC3CCN(C(C)C)CC3)nc(C#N)nc2cc1O`: the IC50 in experiment [1] came out at 60 nM.

As for `COc1cc2ncnc(NC3CCN(Cc4ccccc4)CC3)c2cc1OC`, the IC50 in experiment [1] was 1450 nM. In addition, the inhibition in experiment [2] came out at 27.4%; in experiment [3], 82.4%.

For `COc1ccc2nc(C#N)nc(NC3CCN(C(C)C)CC3)c2c1`, the IC50 in experiment [1] is 85 nM.

`COCCOc1cc2nc(C#N)nc(NC3CCN(C(C)C)CC3)c2cc1OC`: in experiment [1], the 50% inhibitory concentration (IC50) worked out at 29 nM.

For the compound `COc1cc2nc(N3CCCCC3)nc(NC3CCN(Cc4ccccc4)CC3)c2cc1OC`, the half-maximal inhibitory concentration (IC50) in experiment [1] is more than 5000 nM. Further, the inhibition in experiment [2] worked out at 98%; in experiment [3] it was 99.2%.

On to `COc1ccc2c(NC3CCN(C(C)C)CC3)nc(C#N)nc2c1`, for which the half-maximal inhibitory concentration (IC50) in experiment [1] was found to be 271 nM.

Take `COc1cc2nc(C#N)nc(OC3CCN(C)CC3)c2cc1OC`: the half-maximal inhibitory concentration (IC50) in experiment [1] worked out at 2520 nM.

`COc1cc2nc(C#N)nc(NC3CCOCC3)c2cc1OC`: the IC50 in experiment [1] stood at 4900 nM.

As to `COc1cc2nc(C#N)nc(NC3CCNCC3)c2cc1OC`, in experiment [1], the half-maximal inhibitory concentration (IC50) was determined as 1410 nM.

For the compound `COc1cc2nc(C#N)nc(NC3CCCC3)c2cc1OC`, the IC50 in experiment [1] is more than 5000 nM.

Consider `COc1cc2nc(C#N)nc(N(C)C3CCN(C)CC3)c2cc1OC`, for which the half-inhibitory concentration (IC50) in experiment [1] came to 3760 nM.

As to `COc1cc2nc(CN)nc(NC3CCN(Cc4ccccc4)CC3)c2cc1OC`, in experiment [1], the half-inhibitory concentration (IC50) came to 1410 nM. Moreover, the results for the inhibition in experiment [2] and in experiment [3] were 34.8% and 95.4%, respectively.

On to `COc1cc2nc(N(C)C)nc(NC3CCN(Cc4ccccc4)CC3)c2cc1OC`, for which the half-maximal inhibitory concentration (IC50) in experiment [1] was found to be 1510 nM. Besides, the values for the inhibition in experiment [2] and in experiment [3] were 99.6% and 99.1%, respectively.

For `COc1cc2nc(C#N)nc(NC3CCCCC3)c2cc1OC`, in experiment [1], the IC50 is 4570 nM.

In the case of `COc1cc2nc(C#N)nc(N3CCN(C)CC3)c2cc1OC`, in experiment [1], the IC50 is 4300 nM.

For the compound `COc1cc2c(NC3CCN(C(C)C)CC3)nc(C#N)nc2cc1OCCCN1CCC(F)(F)C1`, the half-maximal inhibitory concentration (IC50) in experiment [1] was 38 nM.

In the case of `COc1cc2nc(N)nc(NC3CCN(Cc4ccccc4)CC3)c2cc1OC`, in experiment [1], the half-maximal inhibitory concentration (IC50) turned out to be 1550 nM. The results for the inhibition in experiment [2] and in experiment [3] were 99.1% and 99.6%, respectively.

As to `CCN1CCC(Nc2nc(C#N)nc3cc(OC)c(OC)cc23)CC1`, the IC50 in experiment [1] was determined as 1510 nM.

As to `COc1cc2nc(C#N)nc(NCC3CCN(C)CC3)c2cc1OC`, the IC50 in experiment [1] was determined as 2430 nM.

Consider `COc1cc2nc(C#N)nc(NC3CCN(C)CC3)c2cc1OC`, for which the IC50 in experiment [1] was found to be 204 nM.
